In general, IC50 refers to the midpoint of a concentration-inhibition curve.

One data set concerns NIH/3T3. Put plainly: MTT cytotoxicity test NIH/3T3. The class given is cell-based, mouse. The note with it: NIH/3T3, 48 h, up to 100 µM, mean ± SD. As to the method:
(§1) The used human tumour (i.e., melanoma A375, colon cancer HCT116 and HT29, and glioblastoma LN229 and U251) and rodent tumour (i.e., mouse melanoma B16 and B16–F10; rat glioma C6) cell lines as well as murine transformed non-malignant fibroblast cell line NIH/3T3 differed in their rates of COX-1 and COX-2 expression.
(§2) Cytotoxicity was determined by conducting MTT and CV assays using cell viability as an indicator [67]. All measurements were carried out in triplicates.
(In general: Tetrazolium assays rely on reduction of a dye to a coloured formazan, in cell work by metabolically active cells.)

In the next data set the test system is B16–F10. In words: MTT cytotoxicity test B16–F10. As to conditions: B16–F10, 48 h, up to 100 µM, mean ± SD. In kind it is cell-based, mouse. As to the method:
as §1, §2

The next data set concerns the target T1, γ-secretase (Homo sapiens, UniProt P49768).
T1 construct: endogenous in cells; host or cells: HEK293 cells stably overexpressing Swedish-mutant APP (HEK/sw)
The class given is cell-based. The note with it: HEK/sw cells. As to the method: The γ-secretase modulator (GSM) activity of compound 5 was tested on human embryonic kidney (HEK) 293 cells stably overexpressing ”Swedish mutant” APP (HEK/sw), a well-established cell culture model to assess GSM activity. The effect of compound 5 on Aβ production was analysed in comparison to flurbiprofen over a relevant and cell tolerable concentration range (Figure 1).
Nearly confluent (80%) HEK/sw cells were treated with the indicated concentrations of compound 5 or flurbiprofen ((±)-2-fluoro-α-methyl-4-biphenylacetic acid; F8514, Sigma–Aldrich, St. Louis, MO, USA) as described before. Cells treated with DMSO or 1 µM GSM-1 were used as negative and positive controls, respectively. After overnight treatment, the conditioned medium was collected, cleared by centrifugation (10 min, 4 °C, 16,000× g), and the levels of secreted Aβ38, Aβ40, and Aβ42 were analysed using an established Aβ species-specific sandwich immunoassay purchase from Meso Scale Discovery (MSD, Rockville, MD, USA).

A further data set concerns C6. In words: MTT cytotoxicity test C6. In kind it is cell-based, rat. As to conditions: C6, 48 h, up to 100 µM, mean ± SD. As to the method: as §1, §2
A further data set addresses T2, ovine COX-1 (Ovis aries, UniProt P05979).
T2 construct: purchased Cayman Chemical Company 700100
T2 sequence (P05979 25-600): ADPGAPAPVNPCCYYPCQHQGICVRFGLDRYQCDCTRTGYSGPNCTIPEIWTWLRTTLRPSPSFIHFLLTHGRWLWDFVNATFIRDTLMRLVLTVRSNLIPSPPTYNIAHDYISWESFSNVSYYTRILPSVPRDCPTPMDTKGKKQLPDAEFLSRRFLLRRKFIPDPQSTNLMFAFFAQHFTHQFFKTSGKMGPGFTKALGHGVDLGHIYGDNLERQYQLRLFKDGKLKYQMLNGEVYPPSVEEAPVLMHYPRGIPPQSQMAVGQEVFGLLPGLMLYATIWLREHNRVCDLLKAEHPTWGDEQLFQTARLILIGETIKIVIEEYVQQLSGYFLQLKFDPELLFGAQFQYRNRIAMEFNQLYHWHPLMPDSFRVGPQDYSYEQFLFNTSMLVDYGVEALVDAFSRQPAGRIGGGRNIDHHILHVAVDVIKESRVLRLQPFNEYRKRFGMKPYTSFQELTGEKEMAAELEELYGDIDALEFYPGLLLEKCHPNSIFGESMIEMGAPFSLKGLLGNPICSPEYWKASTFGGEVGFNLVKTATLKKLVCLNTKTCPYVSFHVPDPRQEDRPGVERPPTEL
In words: COX Fluorescent Inhibitor Screening Assay Kit, COX-1. In kind it is biochemical. As to the method:
In this work, 100 µM arachidonic acid was applied according to the manufacturer’s instructions for the “COX Fluorescent Inhibitor Screening Assay Kit”.

For another data set, the system named is LN229. In words: MTT cytotoxicity test LN229. The class given is cell-based, human. As to conditions: LN229, 48 h, up to 100 µM, mean ± SD. As to the method:
as §1, §2

Another data set is described as follows: logD7.4 by HPLC method. As to conditions: pH 7.4. The class given is physicochemical. The text has this:
The measured variances in logD7.4 measurements between the two compounds and the two methods lie in the typical range of the method, and both compounds can be seen as equally hydrophobic. This confirms that the replacement of a phenyl ring with a carborane moiety indeed increased the hydrophobicity and could therefore result in an increased BBB penetration of compound 5 compared to flurbiprofen.
In both cases, the eluent consisted of methanol and a 0.01 M phosphate buffer (pH = 7.4); the applied gradient was 0 min at 70% methanol, 10 min at 100% methanol, 20 min at 100% methanol at a flow rate of 0.6 mL/min.

The next data set deals with T3, human COX-2 (Homo sapiens, UniProt P35354).
T3 construct: purchased Cayman Chemical Company 700100
T3 sequence (P35354 18-604): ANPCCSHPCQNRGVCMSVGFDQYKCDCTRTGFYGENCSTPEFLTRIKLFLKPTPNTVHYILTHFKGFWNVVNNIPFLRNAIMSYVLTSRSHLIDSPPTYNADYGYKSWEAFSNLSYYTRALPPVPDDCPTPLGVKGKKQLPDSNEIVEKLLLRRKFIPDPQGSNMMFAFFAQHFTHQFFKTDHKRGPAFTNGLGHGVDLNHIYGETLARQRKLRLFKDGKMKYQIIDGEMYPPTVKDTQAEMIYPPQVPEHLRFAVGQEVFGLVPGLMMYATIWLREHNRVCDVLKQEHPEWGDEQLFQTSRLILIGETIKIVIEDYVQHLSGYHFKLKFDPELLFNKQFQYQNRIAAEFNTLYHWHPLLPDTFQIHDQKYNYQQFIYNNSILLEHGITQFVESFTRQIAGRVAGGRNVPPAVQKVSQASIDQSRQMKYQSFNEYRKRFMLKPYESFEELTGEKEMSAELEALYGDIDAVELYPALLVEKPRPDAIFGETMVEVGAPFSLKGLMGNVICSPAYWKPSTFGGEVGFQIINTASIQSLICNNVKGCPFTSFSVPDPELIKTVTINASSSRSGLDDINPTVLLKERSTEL
In words: COX Fluorescent Inhibitor Screening Assay Kit, COX-2. In kind it is biochemical.

For the next data set, the system named is HCT116. In words: MTT cytotoxicity test HCT116. In kind it is cell-based, human. The note with it: HCT116, 48 h, up to 100 µM, mean ± SD. As to the method:
as §1, §2

In another data set the test system is HT29. In words: MTT cytotoxicity test HT29. In kind it is cell-based, human. The note with it: HT29, 48 h, up to 100 µM, mean ± SD. As to the method: as §1, §2
The test system of another data set is A375. In words: MTT cytotoxicity test A375. In kind it is cell-based, human. As to conditions: A375, 48 h, up to 100 µM, mean ± SD. As to the method: as §1, §2
The test system of the next data set is B16. Put plainly: MTT cytotoxicity test B16. In kind it is cell-based, mouse. The note with it: B16, 48 h, up to 100 µM, mean ± SD. As to the method:
as §1, §2

Another data set relates to U251. Put plainly: MTT cytotoxicity test U251. As to conditions: U251, 48 h, up to 100 µM, mean ± SD. The class given is cell-based, human. As to the method:
as §1, §2

Details of data set [1]: method as in PMID 25513709. The note with it: shake flask; cited from earlier work.
Setting [2] is: enzyme-based assay, result in words.

Where two headings read alike, the source gives them in different places.

As to “2-[4-(1,7-Dicarba-closo-dodecaboran-9-yl(12))phenyl]propionic acid [Compound 5]”, the IC50 in the data set with NIH/3T3 is 90 ± 10 µM; in the data set with B16–F10, 74.7 ± 0.9 µM; with C6, 92.8 ± 4.8 µM; at ovine COX-1 (ovine COX-1, fluorescence kit, 100 µM arachidonic acid, read-out: IC50 inhibition of COX-1), greater than 100 µM; in the data set with LN229, 95 ± 7.1 µM; at human COX-2 (human COX-2, fluorescence kit, 100 µM arachidonic acid, read-out: IC50 inhibition of COX-2), greater than 100 µM. For the same compound, the half-maximal inhibitory concentration (IC50) in the data set with HCT116 was greater than 100 µM; in the data set with HT29, greater than 100 µM; in the data set with A375 it was 96 ± 5.9 µM; in the data set with B16 it was 79 ± 2.4 µM; in the data set on U251 it was 77.5 ± 7.2 µM. In addition, at γ-secretase (150 µM), the “sum of all measured Aβ species (Aβ38, Aβ40 and Aβ42) vs DMSO control” value was “did not decrease significantly”. Besides, the “effect on Aβ42:Aβ40 ratio” value at γ-secretase (extracellular Aβ) was “lowering”. Moreover, at γ-secretase (overnight treatment), the “ratio of short Aβ38 to longer Aβ42 (γ-secretase processivity)” value is “increased”. Moreover, the “effect on Aβ42 (ratio of total Aβ)” value at γ-secretase (overnight treatment, conditioned medium) was “clear dose-dependent decrease”. Also, the “inhibitory activity on COX-1” value against ovine COX-1 (setting [2]) is “No inhibitory activity”. The logD7.4 in “logD7.4 by HPLC method” (HPLC method 1: Chromolith Speed ROD RP-18E 50) was determined as 2.00; in the data set “logD7.4 by HPLC method” (HPLC method 2 (standard conditions): Asahipak ODP-50 4B 4.6 × 50), 1.86. The “inhibitory activity on COX-2” value against human COX-2 (setting [2]) is “No inhibitory activity”.
On to `CC(C(=O)O)c1ccc(-c2ccccc2)c(F)c1` (racemic) [Flurbiprofen, (±)-2-fluoro-α-methyl-4-biphenylacetic acid], for which, in [1], the logD7.4 is 0.91.

Values taken from PMC8151329, “Modulation of γ-Secretase Activity by a Carborane-Based Flurbiprofen Analogue” (Molecules, 2021).
